Laboratory results published in US5004758A, “Water soluble camptothecin analogs useful for inhibiting the growth of animal tumor cells” (priority 1988, dated 1991).
Several values for one entry are separate records, joined by “and”; a condition that tells them apart may be missing. Equal values may be shown once. Where a name gives a salt, the structure may show the parent alone. Read-outs that look alike come from different tables or passages of the source.

What was measured:
[1] = system: sc Madison lung carcinoma; experiment: sc-implanted Madison lung carcinoma in mice; type: in vivo, mouse; settings: sc Madison lung; for Tumor growth inhibition (TGI): C/iv (every 3 hours x4 on Days 1, 5 and 9); for Mice without Palpable Tumors: C/iv
Description: The inoculum varies with the tumor.

[2] = system: ip B16 melanoma/F10 subline; settings: mouse, in vivo; for Increase in lifespan (ILS): ip
Description: Tumors used in these studies--P388 leukemia and its doxorbicin--and mitoxanrone-resistant sublines, L1210 leukemia, B16 melanoma, B16 melanoma/F10 subline, M5076 sarcoma and colon carcinoma 26--are maintained by serial transplantation in syngeneic strains of mice. For the leukemias, these tumors are maintained in DBA/2 mice. The M5076 sarcoma, the B16 melanoma and its F10 subline are maintained in C57B1/6 mice and the colon sarcinoma 26 is maintained in BALB/c mice. The leukemias and the M5076 sarcoma are serially transplanted i.p. as ascites cell suspensions while the B16 melanoma lines and the colon carcinoma 26 are serially transplanted as s.c. solid tumors.
For therapeutic trials, tumors are aseptically removed from donor mice and prepared as suspensions for implantation ip into test animals. The test animals for the colon carcinoma 26 are female BALB/c mice (20-25 gm). The test animals for the other tumor models are syngeneic female F1 hybrid B6D2F1 mice (C57B1/6 x DBA/2). The inoculum level varies with the type of tumor: P388 leukemia is inoculated at 10^6 cells per mouse, L1210 leukemia at 10^5 or 10^6 cells per mouse, M5076 sarcoma at 5×10^6 cells per mouse. For implantation of the B16 melanoma lines and the colon carcinoma 26, s.c. tumors from donor mice are minced and homogenized in loose fitting teflon glass homogenizer to give a tumor brei. The inoculum levels are 0.5 ml of a 10 percent (w:v) brei of the B16 melanoma lines and 0.5 ml of a 5 percent (w:v) brei of colon carcinoma 26. After tumor inoculation, mice randomized to treatment groups comprised of 6-8 mice each. In each experiment, there are three groups of untreated control mice. Drugs are dissolved or suspended in appropriate aqueous vehicles and given by a variety of routes and schedules of administration over a range of dose levels. Animals are housed in shoebox cages and are monitored daily for mortality for 30 (L1210), 45 (P388) or 60 (B16, M5076, colon 26) days.

iv P388 leukemia = settings: mouse, in vivo
Description: (§1) Tumors used in these studies P388 leukemia, L1210 leukemia and Lewis lung carcinoma--are maintained by serial transplantation in syngeneic strains of mice, DBA/2 for the leukemias and C57B1/6 for Lewis lung carcinoma. The leukemias are serially transplanted i.p. as ascites cell suspensions while the Lewis lung carcinoma is serially transplanted as a s.c. solid tumor.
(§2) For therapeutic trials, tumors were aseptically removed from donor mice and prepared as suspensions for implantation into test animals which for each tumor are syngeneic female F1 hybrid B6D2F1 mice (C57B1/6×DBA/2). The inoculum level varies with the type of tumor: P388 leukemia is inoculated at 10^6 cells per mouse, L1210 leukemia at 10^5 or 10^6 cells per mouse, and Lewis lung carcinoma at 0.25 ml of a 10 percent (w:v) brei. […] After tumor inoculation, mice are randomized to treatment groups of 6 to 8 mice each. In each experiment, there are three groups of untreated control mice.
(§3) Drugs are dissolved or suspended in appropriate aqueous vehicles and given i.p. or i.v. on various treatment schedules over a range of dosage levels. Animals are housed in shoebox cages and monitored daily for mortality for 30 (L1210), 45 (P388) or 60 (Lewis lung) days.

sc B16 melanoma = settings: for ILS: mouse, in vivo; for Tumor growth inhibition (TGI) / Mice without Palpable Tumors: sc B16
Description: Inhibition of tumor growth (TGI) is based on mean tumor volume of groups of 7 or 8 mice relative to untreated controls.
Tumors used in these studies are maintained by serial transplantation in syngeneic strains of mice C57BL/6 for Lewis lung carcinoma, B16 melanoma and its F10 subline, M5076 sarcoma and colon adenocarcinoma 38; BALB/c for colon carcinoma 26, ADJ-PC6 plasmacytoma Madison lung carcinoma and colon adenocarcinoma 51, C3H for mammary adenocarcinoma 16/c. With the exception of the M5076 sarcoma, which is maintained as a i.p ascites cell suspension, all of the tumors were serially transplanted as s.c. solid tumors.
For therapeutic trials, tumors were aseptically removed from donor mice and prepared for implantation s.c. into test animals. The test animals for Lewis lung carcinoma, B16 melanoma and its F10 subline, M5076 sarcoma and colon adenocarcinoma 38 are syngeneic female F1 hybrid B6D2F mice (C57B1/6×DBA/2). ADJ-PC6 plasmacytoma and colon carcinoma 26 are evaluated in female BALB/c mice. Madison lung carcinoma and colon adenocarcinoma 51 are evaluated in syngeneic female F1 hybrid CD2F1 mice (BALB/c×DBA/2). Mammary adenocarcinoma 16/c is evaluated in female C3H mice. The inoculum varies with the tumor. Colon adenocarcinomas 38 is implanted as 2 mm fragments by trochar. M5076 sarcoma and ADJ-PC6 plasmacytoma are implanted as cell suspensions at 5×10^6 and 2×10^6 cells per mouse, respectively. Colon carcinoma 26, colon adenocarcinoma 51, Lewis lung carcinoma, Madison lung carcinoma and B16 melanoma and its F10 subline are implanted as tumor breis prepared as described above in a volume of 0.5 ml. The brei concentration was 10 percent (w:v) except for colon carcinoma 26 for which the brei concentration was 5 percent (w:v). After tumor inoculation, mice are randomized to treatment groups of 7 or 8 mice. In each experiment, there are three groups of untreated control mice.
Drugs are dissolved or suspended in appropriate aqueous vehicles and given by a variety of routes of administration and treatment schedules over a range of dosage levels. Animals are housed in shoebox cages and are monitored daily for mortality. […] Time for tumor measurement is dependent on the different rates of tumor growth of the different tumors: the most rapidly growing tumors such as the Lewis and Madison lung tumors, B16 melanoma and its F10 subline were measured between Days 12 and 16. The slower growing tumors were measured at later time points--17 days for M5076 sarcoma, 16 or 19 days for mammary adenocarcinoma 16/c, 19 days for ADJ-PC6 plasmacytoma and colon carcinoma 26, 24 days for colon adenocarcinoma 51, and 31 days for colon adenocarcinoma 38.
For highly metastatic tumors including: Lewis and Madison lung tumors, colon carcinoma 26 and B16 melanoma and its F10 subline, tumor-bearing mice are monitored for survival time as well. For the less mestastatic tumor models, tumor-bearing mice are killed following tumor measurement. In this setting, an increase in lifespan of ≥30 percent is considered to be evidence of drug activity.

in vivo = settings: mouse, ip
Description: as §1, §2, §3

ip L1210 leukemia = experiment: ip-implanted L1210 leukemia in mice; settings: mouse, in vivo, ip;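 note: each mouse received 10^6 L1210 cells intraperitoneally, with drug treatment also given by the i.p. route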
Description: For in vivo studies L1210 cells were implanted i.p. (10^6 per mouse)
and drugs were administered i.p. on Days 1 and 5. Increase in lifespan
(ILS) was based on median survival time of groups of 6 mice treated at th
maximally tolerated dose of the drugs.

For `CC[C@@]1(O)C(=O)OCc2c1cc1n(c2=O)Cc2cc3c(CN(C)C)c(O)ccc3nc2-1` [Compound No. 1S, (20 S) 9-Dimethylaminomethyl-10-hydroxycamptothecin Acetate Salt], the “Tumor growth inhibition (TGI)” value ([1]; 0.19 mg/kg/injection) was 0%, the “Tumor growth inhibition (TGI)” value ([1]; 0.38 mg/kg/injection) was 41% and the “Tumor growth inhibition (TGI)” value ([1]; 0.75 mg/kg/injection) was 63%. The “Tumor growth inhibition (TGI)” value ([1]; 1.5 mg/kg/injection) was 85%, the “Tumor growth inhibition (TGI)” value ([1]; 3 mg/kg/injection) was “toxic” and the “Mice without Palpable Tumors” value ([1]; 0.75 mg/kg/injection) was 1/8. For the same compound, the “Mice without Palpable Tumors” value ([1]; 1.5 mg/kg/injection) was 3/8, the “increases in lifespan at two lower doses” value [2] was > 40 and the “Increase in lifespan (ILS)” value ([2]; 3.2 mg/kg) was 37%. For the same compound, the “Increase in lifespan (ILS)” value ([2]; 5.4 mg/kg) was 63%, the “Increase in lifespan (ILS)” value ([2]; 9 mg/kg) was 68% and the “Increase in lifespan (ILS)” value ([2]; 25 mg/kg) was “toxic”. For the same compound, the “Increase in lifespan (ILS)” value (iv P388 leukemia; 3.2 mg/kg) was 42%, the “Increase in lifespan (ILS)” value (iv P388 leukemia; 5.4 mg/kg) was 58% and the ILS (iv P388 leukemia; 15 mg/kg) was 125. For the same compound, the “Increase in lifespan (ILS)” value (iv P388 leukemia; 15 mg/kg) was 132%, the cures (iv P388 leukemia; 15 mg/kg) was 1/6 and the “Long-Term Survivors” value (iv P388 leukemia; 25 mg/kg) was 2/6. For the same compound, the “Increase in Lifespan (ILS) or Inhibition of Tumor Growth (TGI)” value (from here on “Increase in Lifespan (ILS) or Inhibition”) (iv P388 leukemia; iv) was “Curative”, the “Increase in lifespan (ILS)” value (iv P388 leukemia; iv, 7.9 mg/kg) was 65% and the “Increase in lifespan (ILS)” value (iv P388 leukemia; iv, 14 mg/kg) was 145%. For the same compound, the “Long-Term Survivors” value (iv P388 leukemia; iv, 19 mg/kg) was 2/6, the “Increase in lifespan (ILS)” value (iv P388 leukemia; iv, 25 mg/kg) was “toxic” and the ILS (sc B16 melanoma) was 53. The ILS (sc B16 melanoma; 24 mg/kg) was 39, the ILS (sc B16 melanoma; sc) was 52 and the “Tumor growth inhibition (TGI)” value (sc B16 melanoma; C/ip (every 3 hours x4 on Days 1, 5 and 9), 0.78 mg/kg/injection) was 46%. The “Tumor growth inhibition (TGI)” value (sc B16 melanoma; C/ip (every 3 hours x4 on Days 1, 5 and 9), 1.3 mg/kg/injection) was 64%, the “Tumor growth inhibition (TGI)” value (sc B16 melanoma; C/ip (every 3 hours x4 on Days 1, 5 and 9), 2.2 mg/kg/injection) was 92% and the “Tumor growth inhibition (TGI)” value (sc B16 melanoma; C/ip (every 3 hours x4 on Days 1, 5 and 9), 3.6 mg/kg/injection) was 100%. For the same compound, the “Tumor growth inhibition (TGI)” value (sc B16 melanoma; C/ip (every 3 hours x4 on Days 1, 5 and 9), 6 mg/kg/injection) was 100%, the “Mice without Palpable Tumors” value (sc B16 melanoma; C/ip, 0.78 mg/kg/injection) was 1/8 and the “Mice without Palpable Tumors” value (sc B16 melanoma; C/ip, 1.3 mg/kg/injection) was 1/8. The “Mice without Palpable Tumors” value (sc B16 melanoma; C/ip, 2.2 mg/kg/injection) was 2/8, the “Mice without Palpable Tumors” value (sc B16 melanoma; C/ip, 3.6 mg/kg/injection) was 7/7 and the “Mice without Palpable Tumors” value (sc B16 melanoma; C/ip, 6 mg/kg/injection) was 7/7. For the same compound, the “Tumor growth inhibition (TGI)” value (sc B16 melanoma; F/ip (Days 1, 5 and 9), 3.1 mg/kg/injection) was 63%, the “Tumor growth inhibition (TGI)” value (sc B16 melanoma; F/ip (Days 1, 5 and 9), 5.2 mg/kg/injection) was 20% and the “Tumor growth inhibition (TGI)” value (sc B16 melanoma; F/ip (Days 1, 5 and 9), 8.6 mg/kg/injection) was 63%. The “Tumor growth inhibition (TGI)” value (sc B16 melanoma; F/ip (Days 1, 5 and 9), 14 mg/kg/injection) was 57%, the “Tumor growth inhibition (TGI)” value (sc B16 melanoma; F/ip (Days 1, 5 and 9), 24 mg/kg/injection) was 99% and the “Mice without Palpable Tumors” value (sc B16 melanoma; F/ip, 3.1 mg/kg/injection) was 2/8. The “Mice without Palpable Tumors” value (sc B16 melanoma; F/ip, 5.2 mg/kg/injection) was 1/8, the “Mice without Palpable Tumors” value (sc B16 melanoma; F/ip, 8.6 mg/kg/injection) was 3/8 and the “Mice without Palpable Tumors” value (sc B16 melanoma; F/ip, 14 mg/kg/injection) was 3/8. For the same compound, the “Mice without Palpable Tumors” value (sc B16 melanoma; F/ip, 24 mg/kg/injection) was 7/8, the “Tumor growth inhibition (TGI)” value (sc B16 melanoma; F/iv (Days 1, 5 and 9), 3.2 mg/kg/injection) was 54% and the “Tumor growth inhibition (TGI)” value (sc B16 melanoma; F/iv (Days 1, 5 and 9), 5.4 mg/kg/injection) was 79%. The “Tumor growth inhibition (TGI)” value (sc B16 melanoma; F/iv (Days 1, 5 and 9), 9 mg/kg/injection) was 96%, the “Tumor growth inhibition (TGI)” value (sc B16 melanoma; F/iv (Days 1, 5 and 9), 15 mg/kg/injection) was 99% and the “Tumor growth inhibition (TGI)” value (sc B16 melanoma; F/iv (Days 1, 5 and 9), 25 mg/kg/injection) was “toxic”. The “Mice without Palpable Tumors” value (sc B16 melanoma; F/iv, 3.2 mg/kg/injection) was 2/8, the “Mice without Palpable Tumors” value (sc B16 melanoma; F/iv, 5.4 mg/kg/injection) was 3/8 and the “Mice without Palpable Tumors” value (sc B16 melanoma; F/iv, 9 mg/kg/injection) was 6/8. The “Mice without Palpable Tumors” value (sc B16 melanoma; F/iv, 15 mg/kg/injection) was 7/8, the “Increase in Lifespan (ILS) or Inhibition” value (sc B16 melanoma; sc B16 Melanoma, optimal doses and optimal schedules) was 100 % TGI and the MTD (in vivo) was 15 mg/kg. For the same compound, the “Increase in Lifespan (ILS) or Inhibition” value (ip L1210 leukemia) was “Curative”, the “Increase in lifespan (ILS)” value (ip L1210 leukemia; 3.2 mg/kg) was 31% and the “Increase in lifespan (ILS)” value (ip L1210 leukemia; 5.4 mg/kg) was 81%. The “Increase in lifespan (ILS)” value (ip L1210 leukemia; 9 mg/kg) was 138%, the “Increase in lifespan (ILS)” value (ip L1210 leukemia; 15 mg/kg) was 219% and the “Long-Term Survivors” value (ip L1210 leukemia; 15 mg/kg) was 2/6. The “Increase in lifespan (ILS)” value (ip L1210 leukemia; 25 mg/kg) was “toxic” and the “long term survivors at the maximally tolerated doses” value (ip L1210 leukemia; Acetate Salt) was 1/6 and 0/6 and 2/6 and 5/6.
